Data taken from US9428771B2, “Method for the oxidation of organic compounds” (STUDIENGE[…] MBH, priority 2010, dated 2016).
Like-named read-outs stand apart in the source and are kept apart here.

How the values were obtained:
P450 BM3 [1] = target: T1, P450 BM3 (Priestia megaterium, UniProt P14779); details: 1 mM additive, 20° C; for TON: mol of product/mol of enzyme; for Regioselectivity: 1 hour
Method: For hydroxylating alkanes, for example C6 and C8 alkanes, the substrate was added to the reaction solution from a 160 mM stock in EtOH and was adjusted to a final concentration of 3.2 mM. The solution further comprised 0.1 M glucose (Riedel de Haen), 1 mM NADP^+ (Codexis, Jülich, Germany), 1 U/ml GDH (#001, Codexis, Jülich, Germany), 1 mM additive (unless otherwise stated), BM3-WT enzyme and 100 mM KPi, pH 8.0 with a total volume of 20 ml. The reactions were shaken for 1 hour at 20° C. in a 50 ml Falcon reaction tube in a bacterial incubator at 130 rpm. After one hour, three aliquots were removed, each of 1 ml volume, and acidified with 0.1 ml of 10% HCl. Subsequently 1 mM 1-pentanol was added as internal standard. The mixture was extracted with half a volume of MTBE and analyzed by gas chromatography.
Hydroxylation products were analyzed by GC using the following instruments and under the following conditions: HP6890+7683HP (Hewlett Packard, USA); column: 15 m Stabilwax phase, internal diameter 0.25 mm, film thickness 0.5 μm, (J&W, Germany); pressure: 0.8 bar H2; split rate 60; injector: 220° C.; temperature gradient: 40° C. 4 min isotherm, 40-60° C. at 4° C./min, 60° C.-250° C. at 15° C./min. FID detector. The product peaks were quantified as a ratio to the 1 mM 1-pentanol peak using the following, previously determined, correction factors: 2-octanol: 2.36; 3-,4-octanol: 2.23; 2-,3-hexanol:1.218; 3-Me-3-PeOH,3-Me-2-PeOH: 1.49; 3,3-Di-Me-2-BuOH: 1.43; 2,3-Di-Me-BuOH: 1.317.
Reaction conditions: 3.2 mM alkane; 1% v/v DMF; 2% v/v ethanol; 100 mM glucose, 1 mM NADP^+, 1 U/ml GDH, 1 mM additive, 100 mM KPi, pH 8.0, total volume 20 ml; 1 hour; 20° C. The P450-BM3 concentration depended on the compound used 2: 1 μM, 3: 2.9 μM, 4: 2.9 μM, 5: 1.1 μM, 6: 2.7 μM)
The turnover numbers (TON) were calculated (mol of product/mol of enzyme) for the enzyme at the end of the reaction.

P450 BM3 [2] = target: T1, P450 BM3; assay: P450 BM3 catalysed oxidation of butane and propane in the presence of additives; type: biochemical, Bacillus megaterium; parameters: polyhistidine (His6) tag from vector pETM11 (N); made in house; host or cells: E. coli BL21 (DE3) GOLD; details: 1 mM additive, 25° C; for % ee: Butane oxidation product; for TON: 10 bar
Method: (§1) The hydroxylation of gaseous alkanes was carried out in a self-constructed low-pressure reactor. […] Subsequently the reaction vessels were linked to a gas bottle via a multichannel gas feed. The following gas mixtures were used to flush the apparatus and to apply a pressure of 10 bar to the reaction solution: a) 7% methane, 8% oxygen, 85% nitrogen, b) 7% propane, 8% oxygen, 85% nitrogen or c) 10% butane, 8% oxygen, 82% nitrogen. The reaction mixture was stirred at 100 rpm with a crosshead-shaped magnetic stirrer (VWR). At the end of the reaction the pressure was carefully released from the reaction vessels, a 1 ml aliquot was centrifuged for 10 min at 13 000 rpm and analyzed by HPLC. […] Each experiment comprised at least one positive control for the enzyme activity, in which dodecanoic acid was added as additive (1 mM final concentration, from a 100 mM stock in DMSO), while the enzyme was exposed to 10 bar of the gaseous alkane mixture. The reaction of dodecanoic acid was analyzed using decanoic acid (1 mM final concentration, from a 100 mM stock in DMSO) as standard. The samples were extracted for the GC analysis with 0.5 volume of MTBE and were analyzed by GC.
(§2) The quantification of propanol and butanol was carried out using the RID-10A detector, while the quantification of methanol was carried out using the RID-10A or, preferably, the ED 50 detector. The ED 50 detector was operated in integrated, amperometric detection mode with an Ag reference electrode in the range of 300 nC. The detection was carried out in waveform as follows:
The P450 BM3 catalysed oxidation of butane and propane was carried out in the presence or absence of additives 1 under standard conditions as follows: 2.5 ml reaction volume, 5 ml gas volume, 1% DMF, 100 mM KPi, pH 8.0, 10 bar pressure (10% n-butane, 8% O2, 82% N2; 7% propane, 8% O2, 85% N2), propane oxidation: 14.5 h, butane oxidation: 17.5 h., 25° C.

P450 BM3 [3] = target: T1, P450 BM3; assay: P450 BM3 catalysed oxidation of methane to methanol in the presence of an additive; type: biochemical, Bacillus megaterium; parameters: polyhistidine (His6) tag from vector pETM11 (N); made in house; host or cells: E. coli BL21 (DE3) GOLD; details: 1 mM additive, 25° C; for Total product formed (methanol): 7% methane, 8% O2, 85% N2, 10 bar; for TON: methane, 10 bar
Method: as §1
30 min isotherm, 60-240° C. at 16° C./min, 240° C. for 5 min isotherm.
as §2, with “follows: […]” for “follows:”

[4] = alkane 2 (3.2 mM), 1 μM P450-BM3, 1 hour
[5] = alkane 4 (3.2 mM), 2.9 μM P450-BM3, 1 hour
[6] = alkane 5 (3.2 mM), 1.1 μM P450-BM3, 1 hour
[7] = Butane (10% n-butane, 8% O2, 82% N2, 10 bar), 2.3 μM enzyme, 17.5 h
[8] = Propane (7% propane, 8% O2, 85% N2, 10 bar), 2.9 μM enzyme, 14.5 h
[9] = alkane 3 (3.2 mM), 2.9 μM P450-BM3, 1 hour
[10] = alkane 6 (3.2 mM), 2.7 μM P450-BM3, 1 hour

T1 sequence (P14779 whole entry): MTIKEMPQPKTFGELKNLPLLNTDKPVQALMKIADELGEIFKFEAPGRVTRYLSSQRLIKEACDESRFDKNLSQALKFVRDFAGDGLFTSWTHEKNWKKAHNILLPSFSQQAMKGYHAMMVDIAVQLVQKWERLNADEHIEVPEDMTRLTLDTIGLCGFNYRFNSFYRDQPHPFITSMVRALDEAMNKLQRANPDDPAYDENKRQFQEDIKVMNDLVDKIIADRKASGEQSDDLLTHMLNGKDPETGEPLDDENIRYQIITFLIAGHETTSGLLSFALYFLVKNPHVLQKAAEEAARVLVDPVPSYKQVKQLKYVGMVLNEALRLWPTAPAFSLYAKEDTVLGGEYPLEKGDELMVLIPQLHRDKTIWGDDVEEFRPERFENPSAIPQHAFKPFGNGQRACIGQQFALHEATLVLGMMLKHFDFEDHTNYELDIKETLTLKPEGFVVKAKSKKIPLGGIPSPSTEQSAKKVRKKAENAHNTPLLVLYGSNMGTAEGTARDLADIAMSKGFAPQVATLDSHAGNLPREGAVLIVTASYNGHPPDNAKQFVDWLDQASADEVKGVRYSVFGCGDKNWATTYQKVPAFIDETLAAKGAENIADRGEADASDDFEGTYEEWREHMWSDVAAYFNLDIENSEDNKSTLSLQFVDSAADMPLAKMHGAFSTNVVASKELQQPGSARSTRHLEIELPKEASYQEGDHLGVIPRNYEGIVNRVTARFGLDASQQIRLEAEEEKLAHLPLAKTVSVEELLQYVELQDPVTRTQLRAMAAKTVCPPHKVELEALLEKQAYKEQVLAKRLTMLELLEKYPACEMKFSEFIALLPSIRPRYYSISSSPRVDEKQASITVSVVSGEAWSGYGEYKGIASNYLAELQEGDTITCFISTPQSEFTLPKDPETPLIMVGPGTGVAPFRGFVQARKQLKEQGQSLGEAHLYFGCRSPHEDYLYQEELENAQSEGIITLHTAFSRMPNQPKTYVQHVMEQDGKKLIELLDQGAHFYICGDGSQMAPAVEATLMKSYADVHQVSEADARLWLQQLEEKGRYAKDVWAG

Structure (SMILES) | Total product formed (P450 BM3 [2]; [7]) | % ee (P450 BM3 [2]; 17.5 h) | TON (P450 BM3 [2]; Butane, 2.3 μM enzyme, 17.5 h) | Total product formed (methanol) (P450 BM3 [3]; 1.3 μM enzyme, 21 h) | TON (P450 BM3 [3]; 1.3 μM enzyme, 21 h) | also measured
O=C(O)C(F)(F)C(F)(F)C(F)(F)C(F)(F)C(F)(F)C(F)(F)C(F)(F)C(F)(F)F [Additive 1c, perfluorononanoic acid] | 2.0 mM | 23% | 879 | 2.75 mM | 2053 | Total product formed (P450 BM3 [1]; [4]): 1.16 mM; TON (P450 BM3 [1]; [4]): 1184; Total product formed (P450 BM3 [1]; [5]): 1.36 mM; TON (P450 BM3 [1]; [5]): 476; Total product formed (P450 BM3 [1]; [6]): 0.96 mM; TON (P450 BM3 [1]; [6]): 892; Regioselectivity (P450 BM3 [1]; alkane 5 (3.2 mM), cell reads: only 2-Hydroxy-3,3-dimethylbutane): only 2-Hydroxy-3,3-
OCCC(F)(F)C(F)(F)C(F)(F)C(F)(F)C(F)(F)C(F)(F)F [1H, 1H, 2H, 2H-perfluorooctan-1-ol] | – | – | – | – | – | Total product formed (methanol) (P450 BM3 [3]; 19 h): 2.53 mM; TON (P450 BM3 [3]; 19 h): 1889
O=C(O)C(F)(F)C(F)(F)C(F)(F)C(F)(F)C(F)(F)C(F)(F)C(F)(F)C(F)(F)C(F)(F)C(F)(F)C(F)(F)C(F)(F)F [Additive 1g, perfluorotridecanoic acid] | – | – | – | 0.75 mM | 560 | –
O=C(O)C(F)(F)C(F)(F)C(F)(F)C(F)(F)C(F)(F)C(F)(F)C(F)(F)C(F)(F)C(F)(F)F [Additive 1d, perfluorodecanoic acid] | 3.9 mM | 20% | 1699 | 3.31 mM | 2472 | –
O=C(O)C(F)(F)C(F)(F)C(F)(F)C(F)(F)C(F)(F)C(F)(F)C(F)(F)C(F)(F)C(F)(F)C(F)(F)C(F)(F)F [Additive 1f, perfluorododecanoic acid] | – | – | – | 1.25 mM | 933 | Total product formed (P450 BM3 [2]; [8]): 0.67 mM; TON (P450 BM3 [2]; Propane, 2.9 μM enzyme, 14.5 h): 227
OCCCC(F)(F)C(F)(F)C(F)(F)C(F)(F)C(F)(F)C(F)(F)C(F)(F)C(F)(F)F [1H, 1H, 2H, 2H, 3H, 3H-Perfluoroundecano, 1H, 1H, 1H, 2H, 2H, 3H, 3H-perfluoroundecanol] | – | – | – | – | – | Total product formed (methanol) (P450 BM3 [3]; 19 h): 0.84 mM; TON (P450 BM3 [3]; 19 h): 630
OCCCCCCC(F)(F)C(F)(F)F [6(perfluoroethyl)hexanol, 6-(perfluoroethyl)hexanol] | – | – | – | – | – | Total product formed (methanol) (P450 BM3 [3]; 19 h): 2.69 mM; TON (P450 BM3 [3]; 19 h): 2006
O=C(O)C(F)(F)F [Additive 1a] | 1.1 mM | 32% | 469 | – | – | –
O=C(O)C(F)(F)C(F)(F)C(F)(F)C(F)(F)C(F)(F)C(F)(F)C(F)(F)C(F)(F)C(F)(F)C(F)(F)F [Additive 1e, perfluoroundecanoic acid] | 5.8 mM | 19% | 2519 | 1.81 mM | 1353 | Total product formed (P450 BM3 [1]; [9]): 1.50 mM; TON (P450 BM3 [1]; [9]): 525; Total product formed (P450 BM3 [1]; [10]): 0.19 mM; TON (P450 BM3 [1]; [10]): 3241; Regioselectivity (P450 BM3 [1]; alkane 6 (3.2 mM), cell reads: only 2-Hydroxy-2,3-dimethylbutane): only 2-Hydroxy-2,3-; Total product formed (P450 BM3 [2]; [8]): 3.0 mM; TON (P450 BM3 [2]; Propane, 2.9 μM enzyme, 14.5 h): 1021
O=C(O)C(F)(F)C(F)(F)C(F)(F)C(F)(F)C(F)(F)C(F)(F)C(F)(F)C(F)(F)C(F)(F)C(F)(F)C(F)(F)C(F)(F)C(F)(F)F [Additive 1h, perfluorotetradecanoic acid] | – | – | – | 0.28 mM | 210 | Total product formed (P450 BM3 [2]; [8]): 0.50 mM; TON (P450 BM3 [2]; Propane, 2.9 μM enzyme, 14.5 h): 170
O=C(O)C(F)(F)C(F)(F)C(F)(F)C(F)(F)C(F)(F)C(F)(F)F [Additive 1b, perfluoroheptanoic acid] | 8.4 mM | 22% | 3632 | – | – | –
